Results as given in ChEMBL document CHEMBL4334456, “Moscatilin Ameliorates Tau Phosphorylation and Cognitive Deficits in Alzheimer's Disease Models” (J Nat Prod, 2019).
Calls of active or inactive are those of the source.

Tests used:
[1] = biological target: Glycogen synthase kinase-3 beta (Mus musculus) (UniProt Q9WV60); assay: Inhibition of GSK-3beta in mouse Neuro2a cells harboring with pCAX/FLAG-tagged APP and pRK5/EGFP-tagged Tau P301L mutant at 0.1 to 10 uM assessed as increase in GSK-3beta phosphorylation at Ser9 residues after 24 hrs by Western blot analysis; type: cell-based
Mus musculus [2] = assay: Anti-alzhemeric activity in scopolamine-induced ICR mouse assessed as inhibition of tau phosphorylation at Ser396 residues in brain at 25 to 100 mg/kg, ip for 2 weeks followed by scopolamine treatment by Western blot analysis; type: functional, organism-based
Mus musculus [3] = assay: Anti-alzhemeric activity in scopolamine-induced ICR mouse assessed as increase in GSK-3beta phosphorylation Ser9 residues in brain at 25 to 100 mg/kg, ip for 2 weeks followed by scopolamine treatment by Western blot analysis; type: functional, organism-based
[4] = biological target: Glycogen synthase kinase-3 beta (Homo sapiens) (UniProt P49841); assay: Inhibition of GSK-3beta in human SH-SY5Y cells assessed as reduction in GSK-3beta phosphorylation at Tyr216 residues at 0.1 to 5 uM pretreated for 24 hrs followed by OA addition and measured after 6 hrs by Western blot analysis; type: cell-based
N2a [5] = assay: Cytotoxicity against mouse Neuro2a cells assessed as reduction in cell viability after 12 hrs by MTT assay; type: cell-based
[6] = biological target: Glycogen synthase kinase-3 beta (Homo sapiens) (UniProt P49841); assay: Inhibition of GSK-3beta in human SH-SY5Y cells harboring with pCAX/FLAG-tagged APP and pRK5/EGFP-tagged Tau P301L mutant assessed as reduction in tau phosphorylation at S396 residues after 12 to 24 hrs by Western blot analysis; type: cell-based
SH-SY5Y [7] = assay: Effect on total tau protein level in human SH-SY5Y cells harboring with pCAX/FLAG-tagged APP and pRK5/EGFP-tagged Tau P301L mutant at 0.1 to 10 uM after 12 to 24 hrs by Western blot analysis; type: ADME, cell-based
[8] = Toxicity in ICR mouse assessed as effect on body weight at 25 to 100 mg/kg, ip for 2 weeks; type: organism-based; conditions: in vivo, 336 h
[9] = biological target: MAP kinase p38 (Homo sapiens) (UniProt O15264+Q15759+Q16539+P53778); assay: Inhibition of p38 phosphorylation in OA-induced human SH-SY5Y cells pretreated for 24 hrs followed by OA addition and measured after 6 hrs by Western blot analysis; type: cell-based
Mus musculus [10] = assay: Anti-alzhemeric activity in scopolamine-induced ICR mouse assessed as inhibition of tau phosphorylation at S202/T205 residues in brain at 25 to 100 mg/kg, ip for 2 weeks followed by scopolamine treatment by Western blot analysis; type: functional, organism-based
Mus musculus [11] = assay: Reversal of scopolamine-induced spatial memory impairment in ICR mouse assessed as decrease in time spent on […] at 25 to 100 mg/kg, ip for 2 weeks followed by scopolamine treatment and measured after 90 mins by Morris water maze test; type: functional, organism-based
Mus musculus [12] = assay: Anti-alzhemeric activity in scopolamine-induced ICR mouse assessed as reduction in tau phosphorylation at S202/T205 residues in hippocampal CA1 region at 25 to 100 mg/kg, ip for 2 weeks followed by scopolamine treatment by immunohistochemistry-based analysis; type: functional, organism-based
[13] = biological target: Glycogen synthase kinase-3 beta (Homo sapiens) (UniProt P49841); assay: Inhibition of GSK-3beta in human SH-SY5Y cells harboring with pCAX/FLAG-tagged APP and pRK5/EGFP-tagged Tau P301L mutant at 0.1 to 10 uM assessed as reduction in GSK-3beta phosphorylation at Tyr216 residues after 24 hrs by Western blot analysis; type: cell-based
[14] = biological target: Glycogen synthase kinase-3 beta (Mus musculus) (UniProt Q9WV60); assay: Inhibition of GSK3beta in mouse Neuro2a cells assessed as reduction in tau phosphorylation at S202/T205 residues at 0.1 to 5 uM pretreated for 12 to 24 hrs followed by OA addition and measured after 6 hrs by Western blot analysis; type: cell-based
SH-SY5Y [15] = assay: Antioxidant activity in OA-induced human SH-SY5Y cells assessed as increase in MDA level at 0.1 to 1 uM pretreated for 12 hrs followed by OA addition and measured after 12 hrs; type: functional, cell-based
SH-SY5Y [16] = assay: Cytotoxicity against human SH-SY5Y cells assessed as reduction in cell viability after 12 hrs by MTT assay; type: cell-based
[17] = biological target: Glycogen synthase kinase-3 beta (Mus musculus) (UniProt Q9WV60); assay: Inhibition of GSK-3beta in mouse Neuro2a cells harboring with pCAX/FLAG-tagged APP and pRK5/EGFP-tagged Tau P301L mutant assessed as reduction in tau phosphorylation at S404 residues after 12 to 24 hrs by Western blot analysis; type: cell-based
N2a [18] = assay: Effect on total tau protein level in mouse Neuro2a cells at 0.1 to 5 uM pretreated for 12 to 24 hrs followed by OA addition and measured after 6 hrs by Western blot analysis; type: cell-based
[19] = biological target: Glycogen synthase kinase-3 beta (Homo sapiens) (UniProt P49841); assay: Inhibition of GSK-3beta in human SH-SY5Y cells harboring with pCAX/FLAG-tagged APP and pRK5/EGFP-tagged Tau P301L mutant at 0.1 to 10 uM assessed as increase in GSK-3beta phosphorylation at Ser9 residues after 24 hrs by Western blot analysis; type: cell-based
SH-SY5Y [20] = assay: Effect on cell cycle arrest in OA-induced human SH-SY5Y cells assessed as accumulation at sub-G1 phase at 0.1 uM pretreated for 6 hrs followed by OA addition and measured after 16 hrs […] (reference value: 32.28%); type: functional
Mus musculus [21] = assay: Anti-alzhemeric activity in scopolamine-induced ICR mouse assessed as increase in swimming distance at 25 to 100 mg/kg, ip for 2 weeks followed by scopolamine treatment and measured after 90 mins by Morris water maze test; type: functional, organism-based
SH-SY5Y [22] = assay: Effect on total tau protein level in human SH-SY5Y cells at 0.1 to 5 uM pretreated for 12 to 24 hrs followed by OA addition and measured after 6 hrs by Western blot analysis; type: ADME, cell-based
SH-SY5Y [23] = assay: Cytotoxicity against human SH-SY5Y cells assessed as reduction in cell viability after 24 hrs by MTT assay; type: cell-based
[24] = biological target: Glycogen synthase kinase-3 beta (Homo sapiens) (UniProt P49841); assay: Inhibition of GSK-3beta in human SH-SY5Y cells harboring with pCAX/FLAG-tagged APP and pRK5/EGFP-tagged Tau P301L mutant assessed as reduction in tau phosphorylation at S404 residues after 12 to 24 hrs by Western blot analysis; type: cell-based
N2a [25] = assay: Effect on total tau protein level in mouse Neuro2a cells harboring with pCAX/FLAG-tagged APP and pRK5/EGFP-tagged Tau P301L mutant at 0.1 to 10 uM after 12 to 24 hrs by Western blot analysis; type: ADME, cell-based
SH-SY5Y [26] = assay: Antioxidant activity in OA-induced human SH-SY5Y cells assessed as decrease in GSH level at 0.1 to 1 uM pretreated for 12 hrs followed by OA addition and measured after 12 hrs; type: functional, cell-based
Mus musculus [27] = assay: Anti-alzhemeric activity in scopolamine-induced ICR mouse assessed as increase in GSK-3beta phosphorylation Ser9 residues in hippocampal CA1 region at 25 to 100 mg/kg, ip for 2 weeks followed by scopolamine treatment by immunohistochemistry-based analysis; type: functional, organism-based
SH-SY5Y [28] = assay: Inhibition of ERK phosphorylation in OA-induced human SH-SY5Y cells pretreated for 24 hrs followed by OA addition and measured after 6 hrs by Western blot analysis; type: cell-based
[29] = biological target: Glycogen synthase kinase-3 beta (Homo sapiens) (UniProt P49841); assay: Inhibition of GSK3beta in human SH-SY5Y cells assessed as reduction in tau phosphorylation at S202/T205 residues at 0.1 to 5 uM pretreated for 12 to 24 hrs followed by OA addition and measured after 6 hrs by Western blot analysis; type: cell-based
N2a [30] = assay: Cytotoxicity against mouse Neuro2a cells assessed as reduction in cell viability after 24 hrs by MTT assay; type: cell-based
Mus musculus [31] = assay: Anti-alzhemeric activity in scopolamine-induced ICR mouse assessed as increase in time spent in the target quadrant at 25 to 100 mg/kg, ip for 2 weeks followed by scopolamine treatment and measured after 90 mins by Morris water maze test; type: functional, organism-based
[32] = Toxicity in ICR mouse assessed as effect on body weight at 1 mg/kg, ip for 2 weeks; type: organism-based; conditions: in vivo, 336 h
[33] = biological target: Glycogen synthase kinase-3 beta (Homo sapiens) (UniProt P49841); assay: Inhibition of GSK-3beta in human SH-SY5Y cells assessed as increase in GSK-3beta phosphorylation at Ser9 residues at 0.1 to 5 uM pretreated for 24 hrs followed by OA addition and measured after 6 hrs by Western blot analysis; type: cell-based
Mus musculus [34] = assay: Anti-alzhemeric activity in scopolamine-induced ICR mouse assessed as inhibition of tau phosphorylation at Ser262 residues in brain at 25 to 100 mg/kg, ip for 2 weeks followed by scopolamine treatment by Western blot analysis; type: functional, organism-based
[35] = biological target: Glycogen synthase kinase-3 beta (Mus musculus) (UniProt Q9WV60); assay: Inhibition of GSK3beta in mouse Neuro2a cells assessed as reduction in tau phosphorylation at S262 residues at 0.1 to 5 uM pretreated for 12 to 24 hrs followed by OA addition and measured after 6 hrs by Western blot analysis; type: cell-based
[36] = biological target: Glycogen synthase kinase-3 beta (Homo sapiens) (UniProt P49841); assay: Inhibition of GSK3beta in human SH-SY5Y cells assessed as reduction in tau phosphorylation at S262 residues at 0.1 to 5 uM pretreated for 12 to 24 hrs followed by OA addition and measured after 6 hrs by Western blot analysis; type: cell-based
[37] = biological target: c-Jun N-terminal kinase, JNK (Homo sapiens) (UniProt P45983+P53779+P45984); assay: Inhibition of JNK phosphorylation in OA-induced human SH-SY5Y cells pretreated for 24 hrs followed by OA addition and measured after 6 hrs by Western blot analysis; type: cell-based
Mus musculus [38] = assay: Anti-alzhemeric activity in scopolamine-induced ICR mouse assessed as increase in swimming speed at 25 to 100 mg/kg, ip for 2 weeks followed by scopolamine treatment and measured after 90 mins by Morris water maze test; type: functional, organism-based
SH-SY5Y [39] = assay: Inhibition of tau aggregation in OA-induced human SH-SY5Y cells at 0.1 to 5 uM pretreated for 24 hrs followed by OA addition and measured after 6 hrs by Western blot analysis; type: functional, cell-based
[40] = biological target: Glycogen synthase kinase-3 beta (Mus musculus) (UniProt Q9WV60); assay: Inhibition of GSK-3beta in mouse Neuro2a cells harboring with pCAX/FLAG-tagged APP and pRK5/EGFP-tagged Tau P301L mutant at 0.1 to 10 uM assessed as reduction in GSK-3beta phosphorylation at Tyr216 residues after 24 hrs by Western blot analysis; type: cell-based
[41] = biological target: Glycogen synthase kinase-3 beta (Mus musculus) (UniProt Q9WV60); assay: Inhibition of GSK-3beta in mouse Neuro2a cells harboring with pCAX/FLAG-tagged APP and pRK5/EGFP-tagged Tau P301L mutant assessed as reduction in tau phosphorylation at S396 residues after 12 to 24 hrs by Western blot analysis; type: cell-based

Glycogen synthase kinase-3 beta (Homo sapiens), sequence (P49841 whole entry, looked up): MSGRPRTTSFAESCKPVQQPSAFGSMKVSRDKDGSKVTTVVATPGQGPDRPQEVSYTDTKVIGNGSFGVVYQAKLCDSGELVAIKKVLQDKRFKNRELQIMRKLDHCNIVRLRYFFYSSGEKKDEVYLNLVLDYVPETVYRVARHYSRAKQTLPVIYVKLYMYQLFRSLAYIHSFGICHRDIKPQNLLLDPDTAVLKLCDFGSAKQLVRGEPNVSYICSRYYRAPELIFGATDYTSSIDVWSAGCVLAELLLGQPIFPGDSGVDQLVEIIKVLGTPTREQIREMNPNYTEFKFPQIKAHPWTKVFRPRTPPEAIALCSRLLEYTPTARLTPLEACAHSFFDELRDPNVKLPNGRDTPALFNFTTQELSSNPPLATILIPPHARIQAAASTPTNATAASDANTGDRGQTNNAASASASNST
Glycogen synthase kinase-3 beta (Mus musculus), sequence (Q9WV60 whole entry, looked up): as the sequence (P49841 whole entry, looked up) above, with T390P, T392A, A400T, T402A counted along it

COc1cc(CCc2cc(OC)c(O)c(OC)c2)ccc1O [MOSCATILIN]
inactive: Activity (Mus musculus [38])
> 20 µM: IC50 (N2a [5]) | IC50 (SH-SY5Y [16]) | IC50 (SH-SY5Y [23]) | IC50 (N2a [30])
Non-Toxic: Activity (SH-SY5Y [7]) | Activity [8] | Activity (N2a [18]) | Activity (SH-SY5Y [22]) | Activity (N2a [25]) | Activity [32]
20.81%: Activity (SH-SY5Y [20])
active: inhibition [1] | Activity (Mus musculus [2]) | Activity (Mus musculus [3]) | inhibition [4] | inhibition [6] Dose-dependent effect | inhibition [9] Dose-dependent effect | Activity (Mus musculus [10]) | Activity (Mus musculus [11]) | Activity (Mus musculus [12]) | inhibition [13] | inhibition [14] | Activity (SH-SY5Y [15]) | inhibition [17] Dose-dependent effect | inhibition [19] | Activity (Mus musculus [21]) | inhibition [24] Dose-dependent effect | Activity (SH-SY5Y [26]) | Activity (Mus musculus [27]) | inhibition (SH-SY5Y [28]) Dose-dependent effect | inhibition [29] | Activity (Mus musculus [31]) | inhibition [33] | Activity (Mus musculus [34]) | inhibition [35] | inhibition [36] | inhibition [37] Dose-dependent effect | inhibition (SH-SY5Y [39]) | inhibition [40] | inhibition [41] Dose-dependent effect
